Source: patent publication US10981908B2, “Aryl hydrocarbon receptor (AHR) modulator compounds” (PHENEX PHARMACEUTICALS AG, priority 2017, dated 2021)

Molecular target: T1, AhR (Homo sapiens, UniProt P35869)
T1 construct: The HepG2 CYP1A1-Luc cells do express basal luciferase activity that can be increased via potent AhR agonists or decreased via potent AhR antagonists; endogenous in cells
T1 sequence (P35869 11-848): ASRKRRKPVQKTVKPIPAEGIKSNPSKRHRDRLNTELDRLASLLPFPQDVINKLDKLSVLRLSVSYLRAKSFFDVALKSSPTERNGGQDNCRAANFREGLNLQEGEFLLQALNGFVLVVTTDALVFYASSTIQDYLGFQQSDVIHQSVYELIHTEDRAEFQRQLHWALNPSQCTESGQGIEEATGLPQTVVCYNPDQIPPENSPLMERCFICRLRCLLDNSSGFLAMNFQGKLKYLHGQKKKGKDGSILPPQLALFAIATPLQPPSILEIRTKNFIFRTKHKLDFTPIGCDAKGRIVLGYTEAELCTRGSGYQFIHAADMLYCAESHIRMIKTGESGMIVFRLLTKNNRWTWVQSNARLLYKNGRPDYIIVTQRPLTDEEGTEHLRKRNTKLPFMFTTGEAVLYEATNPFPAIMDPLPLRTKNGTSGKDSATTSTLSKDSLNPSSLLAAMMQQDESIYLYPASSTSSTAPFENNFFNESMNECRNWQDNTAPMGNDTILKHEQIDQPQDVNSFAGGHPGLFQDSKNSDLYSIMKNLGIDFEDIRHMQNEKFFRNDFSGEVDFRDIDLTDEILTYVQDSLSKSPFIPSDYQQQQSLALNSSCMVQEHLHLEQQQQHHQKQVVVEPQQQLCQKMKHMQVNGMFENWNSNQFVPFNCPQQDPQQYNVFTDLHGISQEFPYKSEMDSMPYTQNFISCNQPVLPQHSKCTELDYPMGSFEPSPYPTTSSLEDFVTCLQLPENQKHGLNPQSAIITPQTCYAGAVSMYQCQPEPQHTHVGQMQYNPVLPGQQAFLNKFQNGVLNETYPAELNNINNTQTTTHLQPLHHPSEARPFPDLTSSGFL
Experiment: AhR direct luciferase reporter assay in HepG2 cells (HepG2 CYP1A1-LUC)
Assay type: cell-based
Details: luciferase activity after 18 hours, medium with no exogenous AhR agonist or 10 nM VAF347, read-out: AhR potency (AhR antagonistic potency, IC50 class)
Description: AhR Direct Luciferase Reporter Assay in HepG2 Cells
A stable cell line (HepG2 CYP1A1-LUC) was used in which part of the promoter region of the human CYP1A1 gene is stably integrated into the genome of human HepG2 hepatocytes (DSZM #ACC 180) in front of a Photinus pyralis Firefly Luciferase gene. A 1210 bp fragment comprising part of the human CYP1A1 promoter was isolated via SacI and BgIII restriction digestion from Lightswitch Clone S714555 (SwitchGearGenomics) and inserted between the SacI and BgIII sites in pGL4.30 (Promega #E8481) in front of the Firefly Luciferase gene. The resulting vector was linearized with NotI, transfected into HepG2 cells (DSMZ #ACC 180) and stably transfected clones selected with 250 μg/ml Hygromycin B. After repetitive rounds of subcloning and testing for robustly regulated luciferase activity after AhR agonist stimulation, a stable clonal HepG2 CYP1A1-Luc cell line was selected.
The HepG2 CYP1A1-Luc cells do express basal luciferase activity that can be increased via potent AhR agonists or decreased via potent AhR antagonists, added to the growth medium of the cells.
In typical reporter assays performed with this cell line, cells are grown in 96-well plates and AhR modulators are titrated into the growth medium in serial dilutions in RPMI-1640 Medium (Sigma #R7509) supplemented with 8,6% fetal calf serum (Sigma #F7524) and containing either no exogenous AhR agonist or 10 nM of the potent AhR agonist VAF347 (Calbiochem #182690). Cells are further cultivated for 18 hours and luciferase activities are determined from extracts of cells in buffers containing D-Luciferine and ATvP using a LUMIstar Optima microplate Luminometer from BMG Labtech.

| SMILES | IC50 [nM] |
| --- | --- |
| CCc1ccccc1-c1cc2ccc(NC(=O)c3ncnn3C)nc2[nH]1 [4/1] | < 100 |
| Cn1ncnc1C(=O)Nc1ccc2cc(-c3ccccc3C#N)[nH]c2n1 [4/2] | 100 to 1000 |
| Cn1ncnc1C(=O)Nc1ccc2cc(-c3cc(F)ccc3C#N)[nH]c2n1 [4/3] | 100 to 1000 |
| Cn1ccnc1C(=O)Nc1ccc2cc(-c3ccccc3C(F)F)[nH]c2n1 [4/4] | < 100 |
| Cn1ncnc1C(=O)Nc1ccc2c(F)c(-c3ccccc3C(F)F)[nH]c2n1 [4/6] | 100 to 1000 |
| CCn1ncnc1C(=O)Nc1ccc2cc(-c3ccccc3C(F)F)[nH]c2n1 [4/7] | < 100 |
| Cn1ncnc1C(=O)Nc1ccc2cc(-c3cc(C#N)ccc3C(F)(F)F)[nH]c2n1 [4/8] | < 100 |
| Cc1ocnc1C(=O)Nc1ccc2cc(-c3ccccc3C(F)F)[nH]c2n1 [5/1] | < 100 |
| Cc1scnc1C(=O)Nc1ccc2cc(-c3ccccc3C(F)F)[nH]c2n1 [5/2] | < 100 |
| Cc1ccccc1-c1cc2ccc(NC(=O)c3ccnn3C)nc2[nH]1 [Example 1, 1-Methyl-N-(2-(o-tolyl)-1H-pyrrolo[2,3-b]pyridin-6-yl)-1H-pyrazole-5-carboxamide] | < 100 |
| Cn1nccc1C(=O)Nc1ccc2cc(-c3ccccc3C(F)(F)F)[nH]c2n1 [Example 1/1, 1-Methyl-N-(2-(2-(trifluoromethyl)phenyl)-1H-pyrrolo[2,3-b]pyridin-6-yl)-1H-pyrazole-5-carboxamide] | < 100 |
| Cn1nccc1C(=O)Nc1ccc2cc(-c3cccc(C(F)(F)F)c3)[nH]c2n1 [Example 1/2, 1-Methyl-N-(2-(3-(trifluoromethyl)phenyl)-1H-pyrrolo[2,3-b]pyridin-6-yl)-1H-pyrazole-5-carboxamide] | 100 to 1000 |
| Cn1nccc1C(=O)Nc1ccc2cc(-c3cccnc3C(F)(F)F)[nH]c2n1 [Example 1/3, 1-Methyl-N-(2-(2-(trifluoromethyl)pyridin-3-yl)-1H-pyrrolo[2,3-b]pyridin-6-yl)-1H-pyrazole-5-carboxamide] | 100 to 1000 |
| Cn1nccc1C(=O)Nc1ccc2cc(-c3ccccc3OC(F)(F)F)[nH]c2n1 [Example 1/4, 1-Methyl-N-(2-(2-(trifluoromethoxy)phenyl)-1H-pyrrolo[2,3-b]pyridin-6-yl)-1H-pyrazole-5-carboxamide] | > 1000 |
| Cn1nccc1C(=O)Nc1ccc2cc(-c3cccc(OC(F)(F)F)c3)[nH]c2n1 [Example 1/5, 1-Methyl-N-(2-(3-(trifluoromethoxy)phenyl)-1H-pyrrolo[2,3-b]pyridin-6-yl)-1H-pyrazole-5-carboxamide] | > 1000 |
| Cn1ncnc1C(=O)Nc1ccc2cc(-c3ccccc3C(F)(F)F)[nH]c2n1 [Example 1/6, 1-Methyl-N-(2-(2-(trifluoromethyl)phenyl)-1H-pyrrolo[2,3-b]pyridin-6-yl)-1H-1,2,4-triazole-5-carboxamide] | < 100 |
| O=C(Nc1ccc2cc(-c3ccccc3C(F)(F)F)[nH]c2n1)c1ccccn1 [Example 1/7, N-(2-(2-(Trifluoromethyl)phenyl)-1H-pyrrolo[2,3-b]pyridin-6-yl) picolinamide] | < 100 |

| SMILES | IC50 [nM] |
| --- | --- |
| O=C(Nc1ccc2cc(-c3ccccc3C(F)(F)F)[nH]c2n1)c1ccccc1F [Example 1/8, 2-Fluoro-N-(2-(2-(trifluoromethyl)phenyl)-1H-pyrrolo[2,3-b]pyridin-6-yl)benzamide] | < 100 |
| O=C(Nc1ccc2cc(-c3ccccc3C(F)(F)F)[nH]c2n1)c1ccc(F)cc1 [Example 1/9, 4-Fluoro-N-(2-(2-(trifluoromethyl)phenyl)-1H-pyrrolo[2,3-b]pyridin-6-yl)benzamide] | < 100 |
| O=C(Nc1ccc2cc(-c3ccccc3C(F)(F)F)[nH]c2n1)c1cccnc1 [Example 1/10, N-(2-(2-(Trifluoromethyl)phenyl)-1H-pyrrolo[2,3-b]pyridin-6-yl) nicotinamide] | 100 to 1000 |
| Cn1ncnc1C(=O)Nc1ccc2cc(-c3cccc(F)c3C(F)(F)F)[nH]c2n1 [Example 1/11, N-(2-(3-Fluoro-2-(trifluoromethyl)phenyl)-1H-pyrrolo[2,3-b]pyridin-6-yl)-1-methyl-1H-1,2,4-triazole-5-carboxamide] | < 100 |
| Cn1ncnc1C(=O)Nc1ccc2cc(-c3cc(F)ccc3C(F)(F)F)[nH]c2n1 [Example 1/12, N-(2-(5-Fluoro-2-(trifluoromethyl)phenyl)-1H-pyrrolo[2,3-b]pyridin-6-yl)-1-methyl-1H-1,2,4-triazole-5-carboxamide] | < 100 |
| Cn1ncnc1C(=O)Nc1ccc2cc(-c3cccc4ccccc34)[nH]c2n1 [Example 1/13, 1-Methyl-N-(2-(naphthalen-1-yl)-1H-pyrrolo[2,3-b]pyridin-6-yl)-1H-1,2,4-triazole-5-carboxamide] | < 100 |
| Cn1ncnc1C(=O)Nc1ccc2cc(-c3ccc(F)cc3C(F)(F)F)[nH]c2n1 [Example 1/14, N-(2-(4-Fluoro-2-(trifluoromethyl)phenyl)-1H-pyrrolo[2,3-b]pyridin-6-yl)-1-methyl-1H-1,2,4-triazole-5-carboxamide] | < 100 |
| Cn1ncnc1C(=O)Nc1ccc2cc(-c3ccccc3C(F)F)[nH]c2n1 [Example 1/15, N-(2-(2-(Difluoromethyl)phenyl)-1H-pyrrolo[2,3-b]pyridin-6-yl)-1-methyl-1H-1,2,4-triazole-5-carboxamide] | < 100 |
| Cn1ncnc1C(=O)Nc1ccc2cc(-c3cccc4c3CCC4)[nH]c2n1 [Example 1/16, N-(2-(2,3-Dihydro-1H-inden-4-yl)-1H-pyrrolo[2,3-b]pyridin-6-yl)-1-methyl-1H-1,2,4-triazole-5-carboxamide] | < 100 |
| Cn1ncnc1C(=O)Nc1ccc2cc(-c3ncccc3C(F)(F)F)[nH]c2n1 [Example 1/17, 1-Methyl-N-(2-(3-(trifluoromethyl)pyridin-2-yl)-1H-pyrrolo[2,3-b]pyridin-6-yl)-1H-1,2,4-triazole-5-carboxamide] | > 1000 |
| COc1ccccc1-c1cc2ccc(NC(=O)c3ncnn3C)nc2[nH]1 [Example 1/18, N-(2-(2-Methoxyphenyl)-1H-pyrrolo[2,3-b]pyridin-6-yl)-1-methyl-11H-1,2,4-triazole-5-carboxamide] | 100 to 1000 |
| O=C(Nc1ccc2cc(-c3ccccc3C(F)(F)F)[nH]c2n1)c1cc2ccoc2cn1 [Example 1/19, N-(2-(2-(Trifluoromethyl)phenyl)-1H-pyrrolo[2,3-b]pyridin-6-yl)furo[2,3-c]pyridine-5-carboxamide] | 100 to 1000 |
| Cc1nonc1C(=O)Nc1ccc2cc(-c3ccccc3C(F)(F)F)[nH]c2n1 [Example 1/20, 4-Methyl-N-(2-(2-(trifluoromethyl)phenyl)-1H-pyrrolo[2,3-b]pyridin-6-yl)-1,2,5-oxadiazole-3-carboxamide] | < 100 |
| Cn1cnnc1C(=O)Nc1ccc2cc(-c3ccccc3C(F)(F)F)[nH]c2n1 [Example 1/21, 4-Methyl-N-(2-(2-(trifluoromethyl)phenyl)-1H-pyrrolo[2,3-b]pyridin-6-yl)-4H-1,2,4-triazole-3-carboxamide] | 100 to 1000 |
| O=C(Nc1ccc2cc(-c3ccccc3C(F)(F)F)[nH]c2n1)c1ncc2ccccn12 [Example 1/22, N-(2-(2-(trifluoromethyl)phenyl)-1H-pyrrolo[2,3-b]pyridin-6-yl)imidazo[1,5-a]pyridine-3-carboxamide] | < 100 |
| Cn1ncnc1C(=O)Nc1ccc2cc(-c3ccccc3S(C)(=O)=O)[nH]c2n1 [Example 1/23, 1-Methyl-N-(2-(2-(methylsulfonyl)phenyl)-1H-pyrrolo[2,3-b]pyridin-6-yl)-1H-1,2,4-triazole-5-carboxamide] | > 1000 |
| Cn1ncnc1C(=O)Nc1ccc2cc(-c3ccc(C(F)F)cc3)[nH]c2n1 [Example 1/25, N-(2-(4-(Difluoromethyl)phenyl)-1H-pyrrolo[2,3-b]pyridin-6-yl)-1-methyl-1H-1,2,4-triazole-5-carboxamide] | < 100 |
